Assay results from patent US12090147B2, “Combination therapy with 2-(4-chlorophenyl)-N-((2-(2,6-dioxopiperidin-3-yl)-1-oxoisoindolin-5-yl)methyl)-2,2-difluoroacetamide” (Celgene Corporation, priority 2019, dated 2024).

How the values were obtained:
[1] = test system: isogenic MV4-11 Cas9 cell pair (GCN2); experiment: Isogenic cell pair, wildtype GCN2 vs GCN2 deleted; type: cell-based, human
Source text: ISR, especially via GCN2 pathway, is one of the key pathways contributed to GSPT1 mediated cell death. GCN2 knock down blocked ATF4 and CHOP induction by Compound 1, and suppressed caspase 3 and caspase 8 activation. GCN2 has been implicated in IL-1β production. GCN2 activation inhibit classical caspase 1 mediated inflammasome activation in intestinal cells and that GCN2 knock down in CD11c+ antigen presenting cells or intestinal epithelial cells leads to enhanced inflammasome activation and IL-1β production. (Ravindran et al. Nature. 2016, 531(7595):523-527). To understand if Compound 1 mediated IL-1β induction is downstream of GCN2 pathway, an isogenic MV4-11 Cas9 cell pair either expressing endogenous wildtype GCN2 or with the gene deleted was used. GCN2 knock down suppressed the induction of phosphor-eIF2a, ATF4, CHOP and cleaved caspase 8 by Compound 1 (FIG. 9A). […] These evidences pointed that pro-[…] up-regulation and secreted IL-1β induction are both downstream effects of GCN2 pathway activation, and distinct from the GCN2 mediated classical inflammasome pathway inhibition reported in gut cells (Ravindran et al. Nature. 2016, 531(7595):523-527).

Hygroscopicity = type: physicochemical
[2] = pH 5
[3] = test system: eight AML cell lines and normal PBMC; experiment: IL-1 family cytokine induction across the cell panel; type: cell-based, human
Protocol: (§1) For cytokine assays on AML cell lines, cells were seeded at 1 million per mL, 3 mL per well of 6-well plates and allowed set overnight. The next day, cells were treated with 3 μL 1000× working stock of compounds of interest.
(§2) IL-1α (Meso Scale Disgnostics, Cat No. K151RBD), IL-1β (Meso Scale Disgnostics, Cat No. K151QPD), IL-1RA (Meso Scale Disgnostics, Cat No. K151WTD), IL-18 (Meso Scale Disgnostics, Cat No. K151VJK), TNFa (Meso Scale Disgnostics, Cat No. K151QWD), VEGF Meso Scale Disgnostics, Cat No. K151RHD) levels were measured by (Meso Scale Disgnostics assay kits following manufacturer's instructions. Measurements were made on a MESO™ SECTOR S 600 plate reader (Meso Scale Disgnostics).
(§3) The level of intracellular pro IL-1β and released IL-1β in eight AML cell lines and normal PBMC treated with a titration of Compound 1 over a 48 hour period was assessed. (see FIGS. 1A-1C, Table 2). Supernatant IL-1βb level was induced over 5 fold in 6 out of 8 AML cell lines and normal PBMC upon Compound 1 treatment compared to DMSO (FIGS. 1A, 1B, and 1C, Table 2).
The maturation of IL-1β can be mediated through classical caspase-1 inflammasome pathway, or a caspase-8 dependent non-canonical inflammasome signaling (Antonopoulos et al. J Biol Chem. 2015, 290(33):20167-84; Chauhan et al. Cell Rep. 2018, 25(9):2354-2368; and Schneider et al. Cell Rep. 2017, 21(13):3846-3859). To understand if classical caspase-1 mediated inflammasome pathway was activated by Compound 1, the levels of an inflammasome marker, IL-18, were tested in response to Compound 1 (FIG. 1B, Table 1), using a known inflammasome stimulant lipopolysaccharide (LPS) as positive control.

MV4-11 [4] = experiment: Cytokine induction, electrochemiluminescence assay of culture supernatant; type: cell-based, human; conditions: compounds at 1 μM, 72 hours
ML-2 [5] = experiment: Caspase 8/FLICE activity colorimetric assay; type: cell-based, human; conditions: compounds at 1 μM, 24, 48 and 72 hours
Protocol: (§4) Next, tests were performed to see if caspase 8 activation alone is sufficient to mediate IL-1β induction. […] To ensure caspase 8 activity was captured at an appropriate time frame, caspase 8 activation levels at 24, 48 and 72 hours were measured (FIGS. 3C and 3D) using a caspase 8/FLICE activity colorimetric assay.

MV4-11 [6] = experiment: Caspase 8/FLICE activity colorimetric assay; type: cell-based, human; conditions: compounds at 1 μM, 24, 48 and 72 hours
Protocol: as §4

THP-1 = experiment: Cytokine induction, electrochemiluminescence assay of culture supernatant; type: cell-based, human
Protocol: as §1
(§5) Human AML cell lines, HL-60 (CCL-240), KG-1 (CCL-246), ML-2 (ACC-15), MOLM-13 (ACC-554), MV-4-11 (CRL-9591), NOMO-1 (ACC-542), TF-1 (CRL-2003), THP-1 (TIB-202), and U937 (CRL-1593) were obtained from American Type Culture Collection (ATCC; Manassas, VA) or Deutsche Sammlung von Mikroorganismen and Zellkulturen (DSMZ, Germany) cell banks. Acute myeloid leukemia cell lines were maintained in RPMI-1640 (ATCC Cat No. 30-2001) containing 20% fetal bovine serum (FBS) (Corning Cat No. 35-010-CV) and maintained in humidified incubators at 5% carbon dioxide.
as §2
(§6) Cell proliferation (CTG) and caspase 3/7 activation (IncuCyte) were analyzed using GraphPad Prism. Electrochemiluminescence data was analyzed using MSD Discovery Workbench platform.
as §3

MOLM-13 = experiment: as above; type: cell-based, human; conditions: MOLM-13
Protocol: as §1, §5, §2, §6, §3

TF-1 = experiment: as above; type: cell-based, human
Protocol: as §1, §5, §2, §6, §3

U937 = experiment: as above; type: cell-based, human
Protocol: as §1, §5, §2, §6, §3

NOMO-1 = experiment: as above; type: cell-based, human
Protocol: as §1, §5, §2, §6, §3

ML-2 [7] = experiment: as above; type: cell-based, human; conditions: ML-2
Protocol: as §1, §5, §2, §6, §3

KG-1 = experiment: as above; type: cell-based, human
Protocol: as §1, §5, §2, §6, §3

MV4-11 [8] = experiment: as above; type: cell-based, human; conditions: MV4-11
Protocol: as §1, §5, §2, §6, §3

[9] = most cell lines tested (FIG. 1B: ML-2), LPS as positive control

O=C1CCC(N2Cc3cc(CNC(=O)C(F)(F)c4ccc(Cl)cc4)ccc3C2=O)C(=O)N1 (stereo not shown) [Compound 1, 2-(4-chlorophenyl)-N-((2-(2,6-dioxopiperidin-3-yl)-1-oxoisoindolin-5-yl)methyl)-2,2-difluoroacetamide]
Induction of phosphor-eIF2a, ATF4, CHOP and cleaved caspase 8 ([1]; GCN2 knock down): suppressed | Intracellular and supernatant IL-1β induction ([1]; GCN2 knock out cells compared to parental cells): markedly suppressed | Pro-IL-1β upregulation ([1]; absence of GCN2): abolished | Hygroscopicity (Hygroscopicity): Not hygroscopic | Solution Stability [2]: DS is not stable in solution at pH of 5.0 or above. | Supernatant IL-1β level induction compared to DMSO ([3]; in 6 out of 8 AML cell lines and normal PBMC, titration of Compound 1 over a 48 hour period): over 5 fold | IL-1α, IL-1β and IL-1RA induction [3, 9]: induced IL-1α, IL-1β and IL-1RA post-apoptosis | IL-18 levels (inflammasome marker) [3, 9]: without significantly increased the levels of IL-18 | Secreted IL-1β levels, panel of mechanistic compounds (MV4-11 [4]): produced markedly more secreted IL-1β compared to all other compounds tested | Caspase 8 activation level (ML-2 [5]): not the most efficient caspase 8 activating compound across all time points tested | Caspase 8 activation level (MV4-11 [6]): not the most efficient caspase 8 activating compound across all time points tested | IL-1β induction (THP-1): 12.13 | IL-18 induction (THP-1): 2.46 | IL-1β induction (MOLM-13): 0.00 | IL-1β induction (TF-1): 1.41 | IL-18 induction (TF-1): 0.64 | IL-1β induction (U937): 1.28 | IL-18 induction (U937): 0.41 | IL-1β induction (NOMO-1): 1.34 | IL-18 induction (NOMO-1): 0.24 | IL-1β induction (ML-2 [7]): 3.48 | IL-18 induction (ML-2 [7]): 0.00 | Intracellular pro- and secreted IL-1β induction, time of onset (ML-2 [7]): not observed until 48 hours post-treatment | Secreted IL-1β in cell culture supernatant (ML-2 [7]; 24, 48 and 72 hours, doses conferring similar caspase3/7 activation and viability loss): conferred induction | IL-1β induction (KG-1): 27.17 | IL-18 induction (KG-1): 0.38 | IL-1β induction (MV4-11 [8]): 16.46 | IL-18 induction (MV4-11 [8]): 0.00
